Assay results from patent publication US20060035925A1, “SUBSTITUTED 4H-CHROMENES AND ANALOGS AS ACTIVATORS OF CASPASES AND INDUCERS OF APOPTOSIS AND THE USE THEREOF” (Cytovia, Inc., priority 1999, published 2006).
Like-named read-outs stand apart in the source and are kept apart here.

Columns and labels:
[1] = system: Human breast cancer cell line T-47D; assay: Caspase cascade activation assay (N-(Ac-DEVD)-N'-ethoxycarbonyl-R110 fluorogenic substrate) in T-47D cells; format: cell-based; conditions: for Caspase activity (Ratio) T-47D: 24 h incubation with compound, ratio of net RFU (T=3 h) of test compound to control
Experimental: (§1) Human breast cancer cell lines T-47D and ZR-75-1 were grown according to media component mixtures designated by American Type Culture Collection +10% FCS (Invitrogen Corporation), in a 5% CO2-95% humidity incubator at 37° C. T-47D and ZR-75-1 cells were maintained at a cell density between 30 and 80% confluency at a cell density of 0.1 to 0.6×10^6 cells/ml. Cells were harvested at 600×g and resuspended at 0.65×10^6 cells/mL into appropriate media +10% FCS. An aliquot of 45 μl of cells was added to a well of a 96-well microtiter plate containing 5 μl of a 10% DMSO in RPMI-1640 media solution containing 0.16 to 10 μM of 2-amino-3-cyano-4-(3-bromo-4,5-dimethoxyphenyl)-4H-indolo[7,6-b]pyran (Example 42) or other test compound (0.016 to 1 μM final). An aliquot of 45 μl of cells was added to a well of a 96-well microtiter plate containing 5 μl of a 10% DMSO in RPMI-1640 media solution without test compound as the control sample. The samples were mixed by agitation and then incubated at 37° C. for 24 h in a 5% CO2-95% humidity incubator. After incubation, the samples were removed from the incubator and 50 μl of a solution containing 20 μM of N-(Ac-DEVD)-N′-ethoxycarbonyl-R110 (SEQ ID NO:1) fluorogenic substrate (Cytovia, Inc.; WO99/18856), 20% sucrose (Sigma), 20 mM DTT (Sigma), 200 mM NaCl (Sigma), 40 mM Na PIPES buffer pH 7.2 (Sigma), and 500 μg/ml lysolecithin (Calbiochem) was added. The samples were mixed by agitation and incubated at room temperature. Using a fluorescent plate reader (Model 1420 Wallac Instruments), an initial reading (T=0) was made approximately 1-2 min after addition of the substrate solution, employing excitation at 485 nm and emission at 530 nm, to determine the background fluorescence of the control sample. After the 3 h incubation, the samples were read for fluorescence as above (T=3 h).
(§2) The Relative Fluorescence Unit values (RFU) were used to calculate the sample readings as follows: RFU(T=3h)−Control RFU(T=0)=Net RFU(T=3h)
(§3) The activity of caspase cascade activation was determined by the ratio of the net RFU value for 2-amino-3-cyano-4-(3-bromo-4,5-dimethoxyphenyl)-4H-indolo[7,6-b]pyran or other test compound to that of control samples. The EC50 (nM) was determined by a sigmoidal dose-response calculation (Prism 2.0, GraphPad Software Inc.).

[2] = system: Human breast cancer cell line ZR-75-1; assay: Caspase cascade activation assay (N-(Ac-DEVD)-N'-ethoxycarbonyl-R110 fluorogenic substrate) in ZR-75-1 cells; format: cell-based; conditions: for Caspase activity (Ratio) ZR-75-1: 24 h incubation with compound, ratio of net RFU (T=3 h) of test compound to control
Experimental: as §1, §2, §3

[3] = 24 h incubation, sigmoidal dose-response, read-out: Caspase potency EC50 (nM) T-47D
[4] = ZR-75-1 cells, 24 h incubation, sigmoidal dose-response, read-out: Caspase potency EC50 (nM) ZR-75-1
[5] = Homo sapiens, T47D, additional compounds, Table II, read-out: Caspase potency EC50 (nM) T-47D, Table II
[6] = Homo sapiens, ZR-75-1, ZR-75-1 cells, additional compounds, Table II, read-out: Caspase potency EC50 (nM) ZR-75-1, Table II
[7] = ZR-75-1 cells, additional compounds, Table II
[8] = Homo sapiens, T47D, 24 h, 24 h incubation, sigmoidal dose-response, read-out: Caspase potency EC50 (nM) T-47D
[9] = Homo sapiens, ZR-75-1, 24 h, ZR-75-1 cells, 24 h incubation, sigmoidal dose-response, read-out: Caspase potency EC50 (nM) ZR-75-1

2-Amino-3-cyano-7-methoxy-4-(2,4-dimethoxypyrimidinyl)-4H-chromene [Example 27]
Caspase activity (Ratio) T-47D [1]: <2
EC50 [1, 3]: > 10000 nM
Caspase activity (Ratio) ZR-75-1 ([2]; ZR-75-1 cells): <2
EC50 [2, 4]: > 10000 nM

2-Amino-3-ethoxycarboxyl-4-(3-bromo-4,5-dimethoxy-phenyl)-4H-indolo[4,5-b]pyran [Example 72]
Caspase activity (Ratio) T-47D [1]: 1.2
EC50 [1, 3]: > 1000 nM
Caspase activity (Ratio) ZR-75-1 ([2]; ZR-75-1 cells): 3.6
EC50 [2, 4]: 567 nM

2-Amino-4-(3-bromo-4,5-dimethoxyphenyl)-3-cyano-9-methyl-4H-imidazo[4,5-b]chromene [Example 75]
Caspase activity (Ratio) T-47D [1]: 6.3
EC50 [1, 3]: 345 nM
Caspase activity (Ratio) ZR-75-1 ([2]; ZR-75-1 cells): 3.4
EC50 [2, 4]: 146 nM

COc1cc(C2C(C#N)=C(N)Oc3cc(N)ccc32)cc(OC)c1OC (stereo not drawn) [2,7-Diamino-3-cyano-4-(3,4,5-trimethoxyphenyl)-4H-chromene]
EC50 [1, 5]: 30 nM
Caspase activity (Ratio) T-47D, Table II ([1]; additional compounds, Table II): 4.2
EC50 [2, 6]: 15 nM
Caspase activity (Ratio) ZR-75-1, Table II [2, 7]: 3.5

N#CC1=C(N)Oc2cc(N)ccc2C1c1cccc(I)c1 (stereo not drawn) [2,7-Diamino-3-cyano-4-(3-iodophenyl)-4H-chromene]
EC50 [1, 5]: 33 nM
Caspase activity (Ratio) T-47D, Table II ([1]; additional compounds, Table II): 4.8
EC50 [2, 6]: 18 nM
Caspase activity (Ratio) ZR-75-1, Table II [2, 7]: 5.1

N#CC1=C(N)Oc2cc(N)ccc2C1c1ccccc1 (stereo not drawn) [2,7-Diamino-3-cyano-4-phenyl-4H-chromene]
EC50 [1, 5]: 5630 nM
Caspase activity (Ratio) T-47D, Table II ([1]; additional compounds, Table II): 6.3
EC50 [2, 6]: 2880 nM
Caspase activity (Ratio) ZR-75-1, Table II [2, 7]: 8.6

CCC(C)C(=O)Nc1ccc2c(c1)OC(N)=C(C#N)C2c1cc(Br)c(OC)c(OC)c1 (stereo not drawn) [2-Amino-3-cyano-7-(2-methylbutanoylamino)-4-(3-bromo-4,5-dimethoxyphenyl)-4H-chromene]
Caspase activity (Ratio) T-47D, Table II ([1]; additional compounds, Table II): Inactive
Caspase potency EC50 (nM) T-47D, Table II ([1]; additional compounds, Table II): Inactive
Caspase activity (Ratio) ZR-75-1, Table II [2, 7]: Inactive
Caspase potency EC50 (nM) ZR-75-1, Table II [2, 7]: Inactive

COc1cc(C2C(C#N)=C(N)Oc3cc(O)ccc32)cc(OC)c1OC (stereo not drawn) [2-Amino-3-cyano-7-hydroxy-4-(3,4,5-trimethoxyphenyl)-4H-chromene]
EC50 [1, 5]: 456 nM
Caspase activity (Ratio) T-47D, Table II ([1]; additional compounds, Table II): 7.3
EC50 [2, 6]: 208 nM
Caspase activity (Ratio) ZR-75-1, Table II [2, 7]: 10.3

COc1cc(C2C(C#N)=C(N)Oc3cc(O)ccc32)cc(Br)c1OC (stereo not drawn) [Example 1, 2-Amino-3-cyano-7-hydroxy-4-(3-bromo-4,5-dimethoxyphenyl)-4H-chromene]
Caspase activity (Ratio) T-47D [1]: 5.1
EC50 [1, 8]: 153 nM
EC50 [2, 9]: 94 nM
Caspase activity (Ratio) ZR-75-1 ([2]; ZR-75-1 cells): 10.8

CCNc1ccc2c(c1)OC(N)=C(C#N)C2c1cc(Br)c(OC)c(OC)c1 (stereo not drawn) [Example 2A, 2-Amino-3-cyano-7-ethylamino-4-(3-bromo-4,5-dimethoxyphenyl)-4H-chromene]
Caspase activity (Ratio) T-47D [1]: 4.0
EC50 [1, 8]: 72 nM
EC50 [2, 9]: 14 nM
Caspase activity (Ratio) ZR-75-1 ([2]; ZR-75-1 cells): 4.1

N#CC1=C(N)Oc2cc(O)ccc2C1c1cccc(C#N)c1 (stereo not drawn) [Example 2B, 2-Amino-3-cyano-7-hydroxy-4-(3-cyanophenyl)-4H-chromene]
Caspase activity (Ratio) T-47D [1]: 1.2
EC50 [1, 8]: > 10000 nM
EC50 [2, 9]: > 10000 nM
Caspase activity (Ratio) ZR-75-1 ([2]; ZR-75-1 cells): 1.9

COc1cc(C2C(C#N)=C(N)Oc3c2ccc(O)c3O)cc(Br)c1OC (stereo not drawn) [Example 2C, 2-Amino-3-cyano-7,8-dihydroxy-4-(3-bromo-4,5-dimethoxyphenyl)-4H-chromene]
Caspase activity (Ratio) T-47D [1]: 1.1
EC50 [1, 8]: > 10000 nM
EC50 [2, 9]: > 10000 nM
Caspase activity (Ratio) ZR-75-1 ([2]; ZR-75-1 cells): 0.9

N#CC1=C(N)Oc2cc(N)ccc2C1c1cc(Cl)cc(Cl)c1 (stereo not drawn) [Example 2D, 2-Amino-3-cyano-7-amino-4-(3,5-dichlorophenyl)-4H-chromene]
Caspase activity (Ratio) T-47D [1]: 4.4
EC50 [1, 8]: 78 nM
EC50 [2, 9]: 50 nM
Caspase activity (Ratio) ZR-75-1 ([2]; ZR-75-1 cells): 4.4

COc1ccc2c(c1)OC(N)=C(C#N)C2c1cc(Cl)cc(Cl)c1 (stereo not drawn) [Example 2E, 2-Amino-3-cyano-7-methoxy-4-(3,5-dichlorophenyl)-4H-chromene]
Caspase activity (Ratio) T-47D [1]: 4.1
EC50 [1, 8]: 39 nM
EC50 [2, 9]: 29 nM
Caspase activity (Ratio) ZR-75-1 ([2]; ZR-75-1 cells): 4.4

N#CC1=C(N)OC2C3=CC=NC3=CC=C2C1c1cc(Cl)cc(Cl)c1 (stereo not drawn) [Example 2F, 2-Amino-3-cyano-4-(3,5-dichlorophenyl)-4H-indolo[4,5-b]pyran]
Caspase activity (Ratio) T-47D [1]: 4.7
EC50 [1, 8]: 44 nM
EC50 [2, 9]: 26 nM
Caspase activity (Ratio) ZR-75-1 ([2]; ZR-75-1 cells): 4.4

N#CC1=C(N)OC2C3=CC=NC3=CC=C2C1c1cccc(Cl)c1 (stereo not drawn) [Example 2G, 2-Amino-3-cyano-4-(3-chlorophenyl)-4H-indolo[4,5-b]pyran]
Caspase activity (Ratio) T-47D [1]: 5.6
EC50 [1, 8]: 56 nM
EC50 [2, 9]: 25 nM
Caspase activity (Ratio) ZR-75-1 ([2]; ZR-75-1 cells): 4.5

COc1cc(C2C(C#N)=C(N)Oc3c2ccc(N)c3C)cc(Br)c1OC (stereo not drawn) [Example 2H, 2-Amino-3-cyano-7-amino-8-methyl-4-(3-bromo-4,5-dimethoxyphenyl)-4H-chromene]
Caspase activity (Ratio) T-47D [1]: 5.5
EC50 [1, 8]: 29 nM
EC50 [2, 9]: 16 nM
Caspase activity (Ratio) ZR-75-1 ([2]; ZR-75-1 cells): 3.9

COc1cc(C2C(C#N)=C(N)Oc3c2ccc(O)c3N)cc(Br)c1OC (stereo not drawn) [Example 2I, 2-Amino-3-cyano-7-hydroxy-8-amino-4-(3-bromo-4,5-dimethoxyphenyl)-4H-chromene]
Caspase activity (Ratio) T-47D [1]: 6.2
EC50 [1, 8]: 50.4 nM

COc1ccc2c(c1)OC(N)=C(C#N)C2c1cc(F)cc(F)c1 (stereo not drawn) [Example 2J, 2-Amino-3-cyano-7-methoxy-4-(3,5-difluorophenyl)-4H-chromene]
Caspase activity (Ratio) T-47D [1]: 5.0
EC50 [1, 8]: 34 nM
EC50 [2, 9]: 21 nM
Caspase activity (Ratio) ZR-75-1 ([2]; ZR-75-1 cells): 7.4

N#CC1=C(N)OC2C3=CC=NC3=CC=C2C1c1cc(F)cc(F)c1 (stereo not drawn) [Example 2K, 2-Amino-3-cyano-4-(3,5-difluorophenyl)-4H-indolo[4,5-b]pyran]
Caspase activity (Ratio) T-47D [1]: 5.6
EC50 [1, 8]: 37 nM
EC50 [2, 9]: 16 nM
Caspase activity (Ratio) ZR-75-1 ([2]; ZR-75-1 cells): 6.9

N#CC1=C(N)OC2C3=CC=NC3=CC=C2C1c1cccc(F)c1 (stereo not drawn) [Example 2L, 2-Amino-3-cyano-4-(3-fluorophenyl)-4H-indolo[4,5-b]pyran]
Caspase activity (Ratio) T-47D [1]: 4.5
EC50 [1, 8]: 63 nM
EC50 [2, 9]: 41 nM
Caspase activity (Ratio) ZR-75-1 ([2]; ZR-75-1 cells): 7.4

N#CC1=C(N)Oc2cc(N)ccc2C1c1cccc(F)c1 (stereo not drawn) [Example 2M, 2-Amino-3-cyano-7-amino-4-(3-fluorophenyl)-4H-chromene]
Caspase activity (Ratio) T-47D [1]: 5.8
EC50 [1, 8]: 1390 nM
EC50 [2, 9]: 786 nM
Caspase activity (Ratio) ZR-75-1 ([2]; ZR-75-1 cells): 6.9

COc1ccc2c(c1)OC(N)=C(C#N)C2c1cccc(F)c1 (stereo not drawn) [Example 2N, 2-Amino-3-cyano-7-methoxy-4-(3-fluorophenyl)-4H-chromene]
Caspase activity (Ratio) T-47D [1]: 4.2
EC50 [1, 8]: 57 nM
EC50 [2, 9]: 47 nM
Caspase activity (Ratio) ZR-75-1 ([2]; ZR-75-1 cells): 6.8

N#CC1=C(N)Oc2cc(N)ccc2C1c1cc(F)cc(F)c1 (stereo not drawn) [Example 2O, 2-Amino-3-cyano-7-amino-4-(3,5-difluorophenyl)-4H-chromene]
Caspase activity (Ratio) T-47D [1]: 6.4
EC50 [1, 8]: 323 nM
EC50 [2, 9]: 193 nM
Caspase activity (Ratio) ZR-75-1 ([2]; ZR-75-1 cells): 7.1

COc1ccc2c(c1)OC(N)=C(C#N)C2c1cc(OC)c(OC)c(OC)c1 (stereo not drawn) [Example 3, 2-Amino-3-cyano-7-methoxy-4-(3,4,5-trimethoxyphenyl)-4H-chromene]
Caspase activity (Ratio) T-47D [1]: 8.4
EC50 [1, 8]: 29 nM
EC50 [2, 9]: 16 nM
Caspase activity (Ratio) ZR-75-1 ([2]; ZR-75-1 cells): 4.5

COc1cccc(C2C(C#N)=C(N)Oc3cc(OC)ccc32)c1 (stereo not drawn) [Example 4, 2-Amino-3-cyano-7-methoxy-4-(3-methoxyphenyl)-4H-chromene]
Caspase activity (Ratio) T-47D [1]: 8.1
EC50 [1, 8]: 37 nM
EC50 [2, 9]: 33 nM
Caspase activity (Ratio) ZR-75-1 ([2]; ZR-75-1 cells): 5.6
